For assay [1], the target named is CKIT (Homo sapiens (Human), UniProt P10721). The experiment in a line: Kinase selectivity, Mobility shift assay. The format is biochemical. Here is the method:
(§1) Object: In this assay, the inhibitory activity of the test substance on the kinases listed in Table 3 was determined, and therefore the selectivity of the present compound was determined.
(§2) Except for the BRAF V600E kinase in Table 3, the Mobility shift assay was used for other kinases.
(§3) 1. Preparation of Agents:
(§4) • 1.1 1-fold kinase buffer without MnCl2: 50 mM HEPES, pH 7.5, 0.0015% Brij-35, 10 mM MgCl2, 2 mM DTT. • 1.2 1-fold kinase buffer with MnCl2: 50 mM HEPES, pH 7.5, 0.0015% Brij-35, 10 mM MgCl2, 10 mM MnCl2, 2 mM DTT. • 1.3 Termination solution: 100 mM HEPES, pH 7.5, 0.0015% Brij-35, 0.2% Coating Reagent#3, 50 mM EDTA. • 1.4 2.5-fold kinase solution: The kinase was added to the 1-fold kinase buffer to form a 2.5-fold kinase solution. • 1.5 2.5-fold substrate solution: FAM fluorescence-labelled polypeptide and ATP were added to the 1-fold kinase buffer to form a 2.5-fold substrate solution. 2. Preparation of 5-fold compound
(§5) The final test concentration of the compound was 10 μM at maximum. Firstly, a 50-fold concentration (i.e. 500 μM) was prepared with 100% DMSO. The compound was diluted with 100% DMSO by 5 folds at 5 concentrations (successively 500 μM, 100 μM, 20 μM, 4 μM, and 0.8 μM). After diluting with 1-fold kinase buffer by 10 folds, 5 μl of the samples were transferred to a 384-well reaction plate. Two negative control wells and two positive control wells were set at each line respectively. Replication was made in a 96-well plate in five concentrations of 5-fold compound. 10% DMSO was added to the positive control well, and 5 μl of EDTA (250 mM) was added to the negative control well.
(§6) • 3.1 To the 384-well reaction plate was added 5-fold compound dissolved in 10% DMSO at 5 μl/well. • 3.2 To the 384-well reaction plate was added 2.5-fold kinase solution at 10 μl/well. The plate was incubated at room temperature for 10 mins. • 3.3 To the 384-well reaction plate was added 2.5-fold substrate solution at 10 μl/well. The plate was incubated at 28° C. for a certain period. • 3.4 25 μl termination solution was added to terminate the reaction. The conversion was read from Caliper. 4. Inhibition rate calculation Inhibition rate (%)=(maximum−sample value)/(maximum−minimum)×100 • wherein: • maximum refers to the conversion at the DMSO control well, • minimum refers to the conversion at the control well without kinase. Lanthascreen Analysis Method for the BRAF V600E Kinase 1. Preparation of Agents: • 1.1 2-fold kinase solution: using 1-fold kinase buffer to prepare 2-fold kinase solution, with a final concentration of 0.35 nM of BRAFV600E; • 1.2 4-fold substrate solution: using 1-fold kinase buffer to prepare 4-fold substrate solution, with a final substrate solution concentration of 0.2 μM of Fluorescein-MAP2K1 and 1.5 μM of ATP. 2. Preparation of 4-fold compound • The final test concentration of the compound was 10 μM at maximum. Firstly, a 100-fold concentration (i.e. 1000 μM) was prepared with 100% DMSO. The compound was diluted with 100% DMSO by 5 folds at 5 concentrations. The compound series was identical to that in the Mobility Shift Assay. After diluting with 1-fold kinase buffer by 25 folds, the resulting samples were shaked and mixed evenly on a plate-shaker for 10 mins. 3. Procedure • 3.1 To the 384-well reaction plate was added 4-fold compound dissolved in 10% DMSO at 2.5 µl/well; • 3.2 To the 384-well reaction plate was added 2-fold kinase solution at 5 μl/well, and to the negative control wells were added 1-fold kinase buffer. The samples were shaked, mixed evenly, and kept standing at room temperature. • 3.3 To the 384-well reaction plate was added 4-fold substrate solution at 2.5 μl/well. The plate was reacted, shaked, mixed evenly and incubated at room temperature for one hour; • 3.4 Reaction result detection: 2-fold detection solution was prepared, with a final concentration of 2 nM of Antibody and 10 mM of EDTA. 10 μl of the detection solution was transferred to the 384-well plate to terminate the reaction. […]

Assay [2] addresses JAK3 (Homo sapiens (Human), UniProt P52333). The experiment in a line: Kinase selectivity, Mobility shift assay. The format is biochemical. Here is the method:
as §1, §2, §3, §4, §5, §6

The target in assay [3] is LYNa (Homo sapiens (Human), UniProt P07948). The assay can be described thus: Kinase selectivity, Mobility shift assay. The format is biochemical. Here is the method: as §1, §2, §3, §4, §5, §6
For assay [4], the target named is PDK1 (Homo sapiens (Human), UniProt O15530). The experiment in a line: Kinase selectivity, Mobility shift assay. The format is biochemical. Here is the method: as §1, §2, §3, §4, §5, §6
Assay [5] addresses SGK (Homo sapiens (Human), UniProt O00141). The assay can be described thus: Kinase selectivity, Mobility shift assay. The format is biochemical. Here is the method: as §1, §2, §3, §4, §5, §6
The target of assay [6] is AXL (Homo sapiens (Human), UniProt P30530). The experiment in a line: Kinase selectivity, Mobility shift assay. The format is biochemical. The protocol:
as §1, §2, §3, §4, §5
(§7) • 3.1 To the 384-well reaction plate was added 5-fold compound dissolved in 10% DMSO at 5 μl/well. • 3.2 To the 384-well reaction plate was added 2.5-fold kinase solution at 10 μl/well. […] 4. […] 2. […] 3. […] 4.

The target in assay [7] is EphA1 (Homo sapiens (Human), UniProt P21709). The experiment in a line: Kinase selectivity, Mobility shift assay. The format is biochemical. The protocol: as §1, §2, §3, §4, §5, §7
The target in assay [8] is FLT3 (Homo sapiens (Human), UniProt P36888). The assay can be described thus: Kinase selectivity, Mobility shift assay. The format is biochemical. The protocol: as §1, §2, §3, §4, §5, §7
The target in assay [9] is LCK (Homo sapiens (Human), UniProt P06239). The experiment in a line: Kinase selectivity, Mobility shift assay. The format is biochemical. The protocol: as §1, §2, §3, §4, §5, §7
For assay [10], the target named is PKACa (Homo sapiens (Human), UniProt P17612). The experiment in a line: Kinase selectivity, Mobility shift assay. The format is biochemical. The protocol: as §1, §2, §3, §4, §5, §7
Assay [11] concerns the target RSK2 (Homo sapiens (Human), UniProt P51812). The assay can be described thus: Kinase selectivity, Mobility shift assay. The format is biochemical. Here is the method: as §1, §2, §3, §4, §5, §7
In assay [12] the target is TAOK2 (Homo sapiens (Human), UniProt Q9UL54). The experiment in a line: Kinase selectivity, Mobility shift assay. The format is biochemical. The protocol:
as §1, §2, §3, §4, §5, §7

For assay [13], the target named is Estrogen ERα (Homo sapiens (Human), UniProt P03372). The assay can be described thus: Radioligand binding assay No. 226010. Particulars: test substance 10 μM, read-out: Inhibitory rate (%), Estrogen ERα.
The test system of assay [14] is GABAA, Muscimol, Central. The experiment in a line: Radioligand binding assay No. 226500. Particulars: test substance 10 μM; rat.
Assay [15] concerns the target Neuropeptide Y Y1 (Homo sapiens (Human), UniProt P25929). The assay can be described thus: Radioligand binding assay No. 257010. As to conditions: test substance 10 μM, read-out: Inhibitory rate (%), Neuropeptide Y Y1.
For assay [16], the target named is Transporter, Dopamine (DAT) (Homo sapiens (Human), UniProt Q01959). The experiment in a line: Radioligand binding assay No. 220320. As to conditions: test substance 10 μM, read-out: Inhibitory rate (%), Transporter, Dopamine (DAT).
Chain of Transporter, Dopamine (DAT) (Q01959 whole entry): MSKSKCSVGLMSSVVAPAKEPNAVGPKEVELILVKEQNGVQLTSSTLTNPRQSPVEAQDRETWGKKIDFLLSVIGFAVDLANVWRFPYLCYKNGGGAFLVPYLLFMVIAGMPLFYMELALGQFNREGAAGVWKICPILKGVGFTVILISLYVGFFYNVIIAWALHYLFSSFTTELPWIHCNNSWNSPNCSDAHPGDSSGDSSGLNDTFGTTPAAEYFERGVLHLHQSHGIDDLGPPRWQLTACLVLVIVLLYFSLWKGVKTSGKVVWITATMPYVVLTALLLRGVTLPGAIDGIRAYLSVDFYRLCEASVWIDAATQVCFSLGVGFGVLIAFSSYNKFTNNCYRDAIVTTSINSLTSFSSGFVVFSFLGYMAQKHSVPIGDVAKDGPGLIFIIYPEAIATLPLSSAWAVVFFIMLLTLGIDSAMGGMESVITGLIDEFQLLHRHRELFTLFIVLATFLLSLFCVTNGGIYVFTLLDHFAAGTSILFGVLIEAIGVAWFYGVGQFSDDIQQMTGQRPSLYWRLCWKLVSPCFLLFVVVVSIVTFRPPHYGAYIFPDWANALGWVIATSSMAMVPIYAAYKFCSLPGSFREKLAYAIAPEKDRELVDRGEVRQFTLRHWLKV

Chain of SGK (O00141 whole entry, species assumed): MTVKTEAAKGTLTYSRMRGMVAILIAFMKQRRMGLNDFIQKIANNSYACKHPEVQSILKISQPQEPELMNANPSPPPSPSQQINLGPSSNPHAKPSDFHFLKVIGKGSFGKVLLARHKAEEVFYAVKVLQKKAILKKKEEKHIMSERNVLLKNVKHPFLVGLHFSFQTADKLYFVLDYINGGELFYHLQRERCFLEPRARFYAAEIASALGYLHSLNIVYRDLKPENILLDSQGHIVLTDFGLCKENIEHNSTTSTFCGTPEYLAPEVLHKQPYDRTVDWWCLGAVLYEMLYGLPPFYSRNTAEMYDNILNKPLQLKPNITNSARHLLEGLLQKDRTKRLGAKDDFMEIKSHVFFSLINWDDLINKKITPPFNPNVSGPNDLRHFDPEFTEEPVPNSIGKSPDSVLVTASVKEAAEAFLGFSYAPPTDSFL
Chain of CKIT (P10721 26-976): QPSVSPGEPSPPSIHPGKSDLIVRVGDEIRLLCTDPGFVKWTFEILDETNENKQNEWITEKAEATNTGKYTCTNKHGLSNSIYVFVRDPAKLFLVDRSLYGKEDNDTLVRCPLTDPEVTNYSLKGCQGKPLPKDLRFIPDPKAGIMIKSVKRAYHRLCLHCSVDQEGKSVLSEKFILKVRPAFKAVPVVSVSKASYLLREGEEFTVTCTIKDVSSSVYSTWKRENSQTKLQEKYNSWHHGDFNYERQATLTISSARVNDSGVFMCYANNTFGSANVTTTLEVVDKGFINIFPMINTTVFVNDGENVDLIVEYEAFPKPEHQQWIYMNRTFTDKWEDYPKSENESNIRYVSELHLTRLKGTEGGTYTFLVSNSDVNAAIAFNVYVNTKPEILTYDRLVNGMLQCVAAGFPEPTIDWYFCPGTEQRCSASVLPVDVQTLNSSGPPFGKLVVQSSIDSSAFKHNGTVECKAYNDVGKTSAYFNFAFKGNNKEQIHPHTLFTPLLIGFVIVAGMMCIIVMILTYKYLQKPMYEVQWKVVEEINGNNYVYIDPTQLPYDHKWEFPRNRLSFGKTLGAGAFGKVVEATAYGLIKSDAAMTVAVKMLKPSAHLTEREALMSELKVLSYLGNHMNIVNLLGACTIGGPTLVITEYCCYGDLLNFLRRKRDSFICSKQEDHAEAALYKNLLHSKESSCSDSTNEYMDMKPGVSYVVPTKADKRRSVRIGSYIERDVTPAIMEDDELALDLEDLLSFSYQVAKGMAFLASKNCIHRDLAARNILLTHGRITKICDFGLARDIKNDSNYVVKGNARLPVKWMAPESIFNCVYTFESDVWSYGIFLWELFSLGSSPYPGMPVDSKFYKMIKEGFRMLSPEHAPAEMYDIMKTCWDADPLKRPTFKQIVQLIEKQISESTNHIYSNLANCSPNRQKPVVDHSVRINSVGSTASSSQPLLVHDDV
Chain of LYNa (P07948 whole entry, species assumed): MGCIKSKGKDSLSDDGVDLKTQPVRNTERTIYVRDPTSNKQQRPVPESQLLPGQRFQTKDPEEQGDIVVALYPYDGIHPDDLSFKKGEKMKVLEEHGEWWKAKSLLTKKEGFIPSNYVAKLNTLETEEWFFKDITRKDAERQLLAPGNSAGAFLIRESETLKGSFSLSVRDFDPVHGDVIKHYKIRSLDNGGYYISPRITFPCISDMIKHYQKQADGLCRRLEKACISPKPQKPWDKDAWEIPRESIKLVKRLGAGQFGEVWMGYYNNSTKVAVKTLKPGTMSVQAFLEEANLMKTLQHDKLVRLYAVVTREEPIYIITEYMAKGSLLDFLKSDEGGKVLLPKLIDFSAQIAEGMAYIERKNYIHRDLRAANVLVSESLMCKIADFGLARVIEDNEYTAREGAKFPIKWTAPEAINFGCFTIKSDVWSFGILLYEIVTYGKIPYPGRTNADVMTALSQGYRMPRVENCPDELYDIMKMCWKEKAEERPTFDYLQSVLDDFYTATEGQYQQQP
Chain of Estrogen ERα (P03372 whole entry): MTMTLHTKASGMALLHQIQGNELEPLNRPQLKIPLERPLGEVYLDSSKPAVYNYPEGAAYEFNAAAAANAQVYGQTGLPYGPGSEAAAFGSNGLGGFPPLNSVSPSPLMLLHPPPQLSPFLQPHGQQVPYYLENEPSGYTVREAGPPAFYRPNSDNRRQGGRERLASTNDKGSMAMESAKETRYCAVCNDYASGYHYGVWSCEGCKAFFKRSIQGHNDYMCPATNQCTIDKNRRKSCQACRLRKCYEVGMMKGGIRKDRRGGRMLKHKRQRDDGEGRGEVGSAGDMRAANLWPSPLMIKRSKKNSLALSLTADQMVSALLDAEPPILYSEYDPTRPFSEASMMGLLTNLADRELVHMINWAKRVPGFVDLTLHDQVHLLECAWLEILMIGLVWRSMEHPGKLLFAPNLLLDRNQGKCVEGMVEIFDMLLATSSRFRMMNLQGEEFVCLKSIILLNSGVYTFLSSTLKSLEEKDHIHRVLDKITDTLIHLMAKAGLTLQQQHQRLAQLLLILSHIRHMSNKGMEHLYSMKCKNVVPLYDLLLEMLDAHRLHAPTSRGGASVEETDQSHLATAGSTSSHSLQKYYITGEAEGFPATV
Chain of TAOK2 (Q9UL54 whole entry, species assumed): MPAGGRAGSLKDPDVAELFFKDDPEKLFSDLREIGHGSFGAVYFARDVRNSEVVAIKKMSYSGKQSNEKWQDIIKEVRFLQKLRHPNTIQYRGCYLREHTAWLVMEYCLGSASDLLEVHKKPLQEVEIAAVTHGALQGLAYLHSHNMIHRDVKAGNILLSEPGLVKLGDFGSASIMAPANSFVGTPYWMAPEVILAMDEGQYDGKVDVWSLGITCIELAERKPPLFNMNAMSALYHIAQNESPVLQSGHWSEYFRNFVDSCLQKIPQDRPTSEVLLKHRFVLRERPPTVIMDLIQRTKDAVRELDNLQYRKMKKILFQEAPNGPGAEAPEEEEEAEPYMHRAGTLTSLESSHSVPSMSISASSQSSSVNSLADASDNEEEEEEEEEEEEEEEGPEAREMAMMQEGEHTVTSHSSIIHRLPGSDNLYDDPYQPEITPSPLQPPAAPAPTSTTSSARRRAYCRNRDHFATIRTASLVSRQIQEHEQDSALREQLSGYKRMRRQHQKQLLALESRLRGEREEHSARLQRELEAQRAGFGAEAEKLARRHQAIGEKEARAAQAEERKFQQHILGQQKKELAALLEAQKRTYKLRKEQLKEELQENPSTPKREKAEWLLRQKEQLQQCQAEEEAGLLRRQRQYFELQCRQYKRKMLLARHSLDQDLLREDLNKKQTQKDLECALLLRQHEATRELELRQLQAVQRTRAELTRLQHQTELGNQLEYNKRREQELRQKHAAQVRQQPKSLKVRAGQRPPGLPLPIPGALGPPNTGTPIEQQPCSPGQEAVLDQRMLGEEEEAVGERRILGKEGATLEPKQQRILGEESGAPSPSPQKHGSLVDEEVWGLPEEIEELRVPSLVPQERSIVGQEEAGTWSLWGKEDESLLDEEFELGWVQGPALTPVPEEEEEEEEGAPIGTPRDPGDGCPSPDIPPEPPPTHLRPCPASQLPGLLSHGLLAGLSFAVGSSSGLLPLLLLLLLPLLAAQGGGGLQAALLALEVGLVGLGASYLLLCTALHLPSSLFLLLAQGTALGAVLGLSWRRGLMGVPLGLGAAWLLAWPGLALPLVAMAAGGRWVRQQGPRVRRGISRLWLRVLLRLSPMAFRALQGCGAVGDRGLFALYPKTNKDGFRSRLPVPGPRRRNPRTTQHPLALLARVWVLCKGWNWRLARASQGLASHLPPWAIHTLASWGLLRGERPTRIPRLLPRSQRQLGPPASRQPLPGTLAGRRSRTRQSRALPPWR
Chain of PDK1 (O15530 whole entry): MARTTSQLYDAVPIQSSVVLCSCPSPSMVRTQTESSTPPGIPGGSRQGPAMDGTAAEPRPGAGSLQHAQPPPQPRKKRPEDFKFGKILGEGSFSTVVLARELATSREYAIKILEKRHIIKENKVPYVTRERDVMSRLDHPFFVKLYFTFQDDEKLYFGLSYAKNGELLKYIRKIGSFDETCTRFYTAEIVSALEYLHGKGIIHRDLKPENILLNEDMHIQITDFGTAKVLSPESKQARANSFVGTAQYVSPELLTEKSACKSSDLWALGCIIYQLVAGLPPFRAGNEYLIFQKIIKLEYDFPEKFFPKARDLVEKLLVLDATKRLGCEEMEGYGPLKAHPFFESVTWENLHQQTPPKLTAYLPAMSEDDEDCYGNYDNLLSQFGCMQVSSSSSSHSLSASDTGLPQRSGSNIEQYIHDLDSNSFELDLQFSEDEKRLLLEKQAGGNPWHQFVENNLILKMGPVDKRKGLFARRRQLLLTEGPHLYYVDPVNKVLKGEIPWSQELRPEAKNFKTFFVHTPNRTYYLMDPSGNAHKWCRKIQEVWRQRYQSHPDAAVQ

As to `Nc1ccc(-c2ccc3ncc4c(=O)[nH]c(=O)n(-c5cccc(C(F)(F)F)c5)c4c3n2)cn1` [Compound 5, 9-(6-aminopyridin-3-yl)-1-(3-(trifluoromethyl)phenyl)pyrimido[5,4-c][1,5]naphthyridine-2,4(1H,3H)-dione], the IC50 – broadly, the concentration at which inhibition is half-maximal – in assay [1] was over 10000 nM; in assay [2], over 10000 nM; in assay [3], 1370 nM; in assay [4] it was over 10000 nM; in [5], over 10000 nM; in assay [6] it was 2140 nM. For the same molecule, the IC50 in [7] was 1470 nM; in assay [8], 6250 nM; in assay [9], 1130 nM; in assay [10] it was over 10000 nM; in assay [11], over 10000 nM; in [12], over 10000 nM. In addition, the inhibition at 10 µM in assay [13] was 17%; in assay [15], 3%; in [16], 1%. The “Inhibitory rate (%), GABAA, Muscimol, Central” value in assay [14] is reported as 18%.

These data come from patent publication US9365572B2, “PI3K and/or mTOR inhibitor” (XUANZHU PHARMA CO., LTD., priority 2012, dated 2016).
